{"source": "patent US20240050428A1", "about": "(Cullgen (Shanghai), Inc., priority 2020, published 2024)", "key": {"MV4;11 cells": {"test_system": "MV4;11 cells", "test": "Cell viability assay (CellTiter-Glo) in MV4;11 cells, alone or with gilteritinib", "assay_type": "cell-based", "details": "Homo sapiens, MV4;11 cells, three days, CellTiter-Glo, read-out: MV4"}, "MOLM-13 cells": {"test_system": "MOLM-13 cells", "test": "Cell viability assay (CellTiter-Glo) in MOLM-13 cells, alone or with gilteritinib", "assay_type": "cell-based", "details": "Homo sapiens, MOLM-13 cells, three days, CellTiter-Glo"}, "[1]": {"details": "MV4-11, 72 h, compound alone (without gilteritinib), 11 IC50"}, "[2]": {"details": "MV4-11, 72 h, with gilteritinib 10 nM, 11 IC50 gilteritinib"}, "[3]": {"details": "MOLM-13, 72 h, compound alone (without gilteritinib), read-out: MOLM-13 IC50"}, "[4]": {"details": "MOLM-13, 72 h, with gilteritinib 20 nM, read-out: MOLM-13 IC50 gilteritinib"}, "[5]": {"details": "72 h, compound alone (without gilteritinib), 11 IC50"}, "[6]": {"details": "72 h, with gilteritinib 10 nM, 11 IC50 gilteritinib"}, "[7]": {"details": "72 h, compound alone (without gilteritinib), read-out: MOLM-13 IC50"}, "[8]": {"details": "72 h, with gilteritinib 20 nM, read-out: MOLM-13 IC50 gilteritinib"}}, "note": "Like-named read-outs stand apart in the source and are kept apart here.", "data": [{"smiles": "O=C1CCC(N2Cc3ccc(CCCCCC(=O)N4CCC(c5cccc(Cl)c5)CC4)cc3C2=O)C(=O)N1", "note": "(stereo not drawn) [GS-113, 3-(6-(6-(4-(3-Chlorophenyl)piperidin-1-yl)-6-oxohexyl)-1-oxoisoindolin-2-yl)piperidine-2,6-dione]", "values": [{"measurement": "IC50", "setting": "MV4;11 cells; [1]", "result": "10 to 100", "unit": "nM"}, {"measurement": "IC50", "setting": "MV4;11 cells; [2]", "result": "< 10", "unit": "nM"}, {"measurement": "IC50", "setting": "MOLM-13 cells; [3]", "result": "> 1000", "unit": "nM"}, {"measurement": "IC50", "setting": "MOLM-13 cells; [4]", "result": "10 to 100", "unit": "nM"}]}, {"smiles": "O=C1CCC(N2Cc3ccc(CCCCCC(=O)N4CCC(c5ccc(Cl)cc5)CC4)cc3C2=O)C(=O)N1", "note": "(stereo not drawn) [GS-114, 3-(6-(6-(4-(4-Chlorophenyl)piperidin-1-yl)-6-oxohexyl)-1-oxoisoindolin-2-yl)piperidine-2,6-dione]", "values": [{"measurement": "IC50", "setting": "MV4;11 cells; [5]", "result": "100 to 1000", "unit": "nM"}, {"measurement": "IC50", "setting": "MV4;11 cells; [6]", "result": "10 to 100", "unit": "nM"}, {"measurement": "IC50", "setting": "MOLM-13 cells; [7]", "result": "100 to 1000", "unit": "nM"}, {"measurement": "IC50", "setting": "MOLM-13 cells; [8]", "result": "10 to 100", "unit": "nM"}]}, {"smiles": "O=C1CCC(N2Cc3ccc(CCCCCCC(=O)N4CCC(c5cccc(Cl)c5)CC4)cc3C2=O)C(=O)N1", "note": "(stereo not drawn) [GS-115, 3-(6-(7-(4-(3-Chlorophenyl)piperidin-1-yl)-7-oxoheptyl)-1-oxoisoindolin-2-yl)piperidine-2,6-dione]", "values": [{"measurement": "IC50", "setting": "MV4;11 cells; [1]", "result": "100 to 1000", "unit": "nM"}, {"measurement": "IC50", "setting": "MV4;11 cells; [2]", "result": "10 to 100", "unit": "nM"}, {"measurement": "IC50", "setting": "MOLM-13 cells; [3]", "result": "10 to 100", "unit": "nM"}, {"measurement": "IC50", "setting": "MOLM-13 cells; [4]", "result": "< 10", "unit": "nM"}]}, {"smiles": "O=C1CCC(N2Cc3ccc(CCCCCCC(=O)N4CCC(c5ccc(Cl)cc5)CC4)cc3C2=O)C(=O)N1", "note": "(stereo not drawn) [GS-116, 3-(6-(7-(4-(4-Chlorophenyl)piperidin-1-yl)-7-oxoheptyl)-1-oxoisoindolin-2-yl)piperidine-2,6-dione]", "values": [{"measurement": "IC50", "setting": "MV4;11 cells; [5]", "result": "10 to 100", "unit": "nM"}, {"measurement": "IC50", "setting": "MV4;11 cells; [6]", "result": "< 10", "unit": "nM"}, {"measurement": "IC50", "setting": "MOLM-13 cells; [7]", "result": "100 to 1000", "unit": "nM"}, {"measurement": "IC50", "setting": "MOLM-13 cells; [8]", "result": "< 10", "unit": "nM"}]}, {"smiles": "O=C1CCC(N2C(=O)c3ccc(NCCc4ccc(-n5cc(-c6cnc7ccccc7n6)cn5)cc4)cc3C2=O)C(=O)N1", "note": "(stereo not drawn) [GS-117, 2-(2,6-Dioxopiperidin-3-yl)-5-((4-(4-(quinoxalin-2-yl)-1H-pyrazol-1-yl)phenethyl)amino)isoindoline-1,3-dione]", "values": [{"measurement": "IC50", "setting": "MV4;11 cells; [1]", "result": "> 1000", "unit": "nM"}, {"measurement": "IC50", "setting": "MV4;11 cells; [2]", "result": "100 to 1000", "unit": "nM"}, {"measurement": "IC50", "setting": "MOLM-13 cells; [3]", "result": "> 1000", "unit": "nM"}, {"measurement": "IC50", "setting": "MOLM-13 cells; [4]", "result": "100 to 1000", "unit": "nM"}]}, {"smiles": "O=C1CCC(N2C(=O)c3ccc(NCCNCC4CC4n4cc(-c5cnc6ccccc6n5)cn4)cc3C2=O)C(=O)N1", "note": "(stereo not drawn) [GS-118, 2-(2,6-Dioxopiperidin-3-yl)-5-((2-(((2-(4-(quinoxalin-2-yl)-1H-pyrazol-1-yl)cyclopropyl)methyl)amino)ethyl)amino)isoindoline-1,3-dione]", "values": [{"measurement": "IC50", "setting": "MV4;11 cells; [1]", "result": "> 1000", "unit": "nM"}, {"measurement": "IC50", "setting": "MV4;11 cells; [2]", "result": "> 1000", "unit": "nM"}, {"measurement": "IC50", "setting": "MOLM-13 cells; [3]", "result": "10 to 100", "unit": "nM"}, {"measurement": "IC50", "setting": "MOLM-13 cells; [4]", "result": "< 10", "unit": "nM"}]}, {"smiles": "O=C1CCC(N2Cc3c(NC4CCCC(Nc5ccnc(N6CCC(n7cc(-c8cnc9ccccc9n8)cn7)CC6)n5)C4)cccc3C2=O)C(=O)N1", "note": "(stereo not drawn) [GS-119, 3-(1-Oxo-4-((3-((2-(4-(4-(quinoxalin-2-yl)-1H-pyrazol-1-yl)piperidin-1-yl)pyrimidin-4-yl)amino)cyclohexyl)amino)isoindolin-2-yl)piperidine-2,6-dione]", "values": [{"measurement": "IC50", "setting": "MV4;11 cells; [1]", "result": "> 1000", "unit": "nM"}, {"measurement": "IC50", "setting": "MV4;11 cells; [2]", "result": "10 to 100", "unit": "nM"}, {"measurement": "IC50", "setting": "MOLM-13 cells; [3]", "result": "> 1000", "unit": "nM"}, {"measurement": "IC50", "setting": "MOLM-13 cells; [4]", "result": "100 to 1000", "unit": "nM"}]}, {"smiles": "O=C1CCC(N2Cc3cc(CNC(=O)C45CC(C(=O)N6CCC(n7cc(-c8cnc9ccccc9n8)cn7)CC6)(C4)C5)ccc3C2=O)C(=O)N1", "note": "(stereo not drawn) [GS-120, N-((2-(2,6-dioxopiperidin-3-yl)-1-oxoisoindolin-5-yl)methyl)-3-(4-(4-(quinoxalin-2-yl)-1H-pyrazol-1-yl)piperidine-1-carbonyl)bicyclo[1.1.1]pentane-1-carboxamide]", "values": [{"measurement": "IC50", "setting": "MV4;11 cells; [1]", "result": "10 to 100", "unit": "nM"}, {"measurement": "IC50", "setting": "MV4;11 cells; [2]", "result": "< 10", "unit": "nM"}, {"measurement": "IC50", "setting": "MOLM-13 cells; [3]", "result": "10 to 100", "unit": "nM"}, {"measurement": "IC50", "setting": "MOLM-13 cells; [4]", "result": "< 10", "unit": "nM"}]}, {"smiles": "O=C(CC12CC(C(=O)N3CCC(n4cc(-c5cnc6ccccc6n5)cn4)CC3)(C1)C2)NCc1ccc2c(c1)CN(C1CCC(=O)NC1=O)C2=O", "note": "(stereo not drawn) [GS-121, N-((2-(2,6-dioxopiperidin-3-yl)-1-oxoisoindolin-5-yl)methyl)-2-(3-(4-(4-(quinoxalin-2-yl)-1H-pyrazol-1-yl)piperidine-1-carbonyl)bicyclo[1.1.1]pentan-1-yl)acetamide]", "values": [{"measurement": "IC50", "setting": "MV4;11 cells; [1]", "result": "100 to 1000", "unit": "nM"}, {"measurement": "IC50", "setting": "MV4;11 cells; [2]", "result": "10 to 100", "unit": "nM"}, {"measurement": "IC50", "setting": "MOLM-13 cells; [3]", "result": "> 1000", "unit": "nM"}, {"measurement": "IC50", "setting": "MOLM-13 cells; [4]", "result": "100 to 1000", "unit": "nM"}]}]}
